Assay results taken from US20260193163A1, “CRYSTAL FORM OF L-ARGININE (S)-2-(1-ACETOXY-N-PENTYL)BENZOATE, AND PREPARATION METHOD THEREFOR AND USE THEREOF” (JIANGSU KANION PHARMACEUTICAL CO., LTD., priority 2023, published 2026).

Assays:
[1] = Crystal form stability study (PXRD, DSC, TGA on day 0, 5, 10); type: physicochemical; settings: 10 days
Experimental: Samples of crystal form I were subjected to physical stability tests under different storage conditions. The storage conditions were respectively: • (1) High temperature: 60° C. • (2) High humidity: RH 90%±5% • (3) Under light exposure: 4500 lx±500 lx, with the total illumination from the light source reaching 1.2×10^6 lux·hr PXRD, DSC, and TGA tests were performed on the samples on day 0, day 5, and day 10, respectively, to investigate the stability of the samples under high temperature, high humidity, and light exposure conditions. The experimental results are detailed in FIG. 8 to FIG. 16 of the description.

[2] = Intrinsic dissolution rate in SGF or FeSSIF; type: physicochemical; settings: 37° C., 100 rpm, 5-120 min, HPLC
Experimental: Samples of crystal form I (25 mg each) were weighed, placed into intrinsic dissolution rate metal modules, and maintained at a pressure of 20 pounds for 30 s and then placed in 20 mL of SGF (Simulated Gastric Fluid) or FeSSIF (Fed-State Simulated Intestinal Fluid) physiological medium, respectively. The medium was maintained at 37° C. and a rotation speed at 100 rpm throughout the process. Then, at 5, 15, 30, 45, 60, 90, and 120 min, respectively, a 0.5 mL aliquot of the solution was taken and filtered through a 0.22 μm aqueous microfiltration membrane. And the volume was replenished with 0.5 mL of the corresponding physiological medium. The concentration was determined according to an HPLC content assay method.

CCCC[C@H](OC(C)=O)c1ccccc1C(=O)O [crystal form I, L-arginine (S)-2-(1-acetoxy-n-pentyl)benzoate]
Change of powder diffraction pattern, DSC trace and TGA trace (physical stability, crystal form transformation) ([1]; high humidity RH 90%±5%): no significant difference | Change of powder diffraction pattern, DSC trace and TGA trace (physical stability, crystal form transformation) ([1]; high temperature 60° C.): no significant difference | Change of powder diffraction pattern, DSC trace and TGA trace (physical stability, crystal form transformation) ([1]; light exposure 4500 lx±500 lx, total illumination 1.2×10^6 lux·hr): no significant difference | Dissolution rate compared with the solid obtained in Comparative Example 1 [2]: significantly higher
